# Like-named read-outs stand apart in the source and are kept apart here.
# Columns and labels:
# herpesvirus polymerases = conditions: cited from earlier work
# HeLa xenograft = HeLa xenograft in female nude mice; type: in vivo; conditions: cidofovir i.p. days 1-5, cetuximab i.p. 1 mg/mouse days 1, 4, 7, alone or combined
# Protocol: Unless otherwise indicated, materials and methods are those described in example 1 above. The in vivo experiments were carried out at the Institut Gustave Roussy (94805 Villejuif; France), with the approval of the French Ministry of Agriculture.
# 10- to 12-week old female nude mice were injected subcutaneously (into the flank) with 2×10^6 live HeLa cells suspended in 100 μL of culture medium without Fetal Calf Serum (FCS) to study tumor growth. […] Tumor volume and weight were monitored twice a week. The mice were sacrificed when the tumor reached ten times the initial volume.
# Me180 xenograft = Me180 xenograft in mice; type: in vivo; conditions: cidofovir, cetuximab alone or combined
# [1] = test system: C33A cells (human HPV-negative cervical carcinoma cells); type: cell-based
# Protocol: (§1) The cell lines are available from the American Type Culture Collection (ATCC): • HeLa cells (human HPV-positive cervical carcinoma cells): ATCC n° CCL-2; • Me180 cells (human HPV-positive cervical carcinoma cells): ATCC n° HTB-33; • C33A cells (human HPV-negative cervical carcinoma cells): ATCC n° HTB-31. • H460 cells (human HPV-negative lung carcinoma cells): ATCC n° HTB-177.
# (§2) The cell lines were grown in humid incubators at 37° C. under 5% CO2.
# (§3) Each of said treatments last the 10-15 days of the clonogenic assay.
# (§4) The culture medium has not been replaced during the assay.
# (§5) The cultures were stopped by fixing and staining with crystal violet (methanol 80%, formaldehyde 10%, crystal violet 1.25 g), when the clones reached 50 cells. The clones were then counted and related to the number of cells cultured to obtain the fraction of surviving cells.
# (§6) The Bliss additivity model was used to classify the effect of the drug combination as synergistic, additive or antagonist.
# (§7) A theoretical curve of the expected effect of the combination was calculated from the equation:
# (§8) Bliss effect=effect A+effect B−effect A×effect B,
# (§9) where effect A and effect B are the effects of drugs A and B alone at specific concentrations.
# (§10) Here, the Bliss effect is the expected effect when the combination of the two drugs is exactly additive. If the observed effect (the experimentally measured effect of the combination) is lower than the Bliss effect, the effect of the combination is said to be antagonist (delta=observed effect−Bliss effect is a negative value). If the observed effect is greater than the Bliss effect, the effect of the combination is synergistic (delta is positive).
# (§11) The data are expressed as a percentage decrease in cell viability beyond that which would be expected if the association were strictly additive.
# [2] = test system: HeLa cells (human HPV-positive cervical carcinoma cells); test: Clonogenicity test on HeLa cells (with Bliss additivity model); type: cell-based
# Protocol: as §1
# The HeLa cells contained 10-50 copies of integrated HPV18.
# as §2, §3, §4, §5, §6, §7, §8, §9, §10, §11
# [3] = test system: Me180 cells (human HPV-positive cervical carcinoma cells); test: Clonogenicity test on Me180 cells (with Bliss additivity model); type: cell-based
# Protocol: as §1
# Me180 cells were grown in the GIBCO® McCoy's 5A medium (available from Invitrogen under catalog reference number 26600023), supplemented with 10% FCS, 1% penicillin/streptomycin and 1% glutamine.
# as §2, §3, §4, §5, §6, §7, §8, §9, §10, §11
# [4] = cidofovir 3 mg/kg, AIDS patients with CMV retinitis, after 1 hour of infusion; cited from earlier work
# [5] = test system: H460 cells (human HPV-negative lung carcinoma cells); test: Clonogenicity test on H460 cells; type: cell-based; conditions: H460 (printed H480); cidofovir alone (10 μg/mL, FIG. 4A)
# Protocol: as §1, §2, §3, §4, §5
# [6] = human, in vivo; cited from earlier work
# viral DNA polymerase = conditions: cited from earlier work
# [7] = erlotinib alone 0.1 μM/mL, listed as Erlotinib
# [8] = foscarnet sodium alone 200 μM/mL, listed as Foscarnet
# [9] = foscarnet sodium alone 200 μM/mL, listed as Foscarnet sodium
compound,measurement,setting,value
Cidofovir diphosphate,fold lower concentration needed to inhibit herpesvirus polymerases than human cellular DNA polymerases,herpesvirus polymerases,8- to 600 fold
"Nc1ccn(C[C@@H](CO)OCP(=O)(O)O)c(=O)n1 [cidofovir, 1-[(S)-3-hydroxy-2-(phophonomethoxy)propyl]cytosine dehydrate]",tumor growth (tumor volume) compared to the control group,HeLa xenograft,does not reduce tumor growth
same,tumor growth compared to the control group,Me180 xenograft,does not reduce tumor growth
same,reduction in cell survival compared to the control,[1]; cidofovir alone 1 μg/mL,about 20%
same,reduction in cell survival / clonogenicity compared to the control / Decrease in living cells (%),[1]; cidofovir alone 5 μg/mL,minus 20%
same,concentration at which the drug alone had an effect on clonogenicity,[2]; cidofovir alone,at least 5 μg/mL
same,reduction in clonogenicity compared to the control / Decrease in living cells (%),[2]; cidofovir alone 5 μg/mL,15%
same,reduction in clonogenicity compared to the control,[2]; cidofovir alone 10 μg/mL,25%
same,clonogenic survival,[2]; cidofovir alone at 1 μg/mL,about 100%
same,concentration at which the drug alone had an effect on the cells,[3]; cidofovir alone,at least 1 μg/mL
same,reduction in cell survival (clonogenicity) compared to the control,[3]; cidofovir alone 1 μg/mL,about 30%
same,reduction in clonogenicity compared to the control / Decrease in living cells (%),[3]; cidofovir alone 5 μg/mL,40%
same,plasmatic concentration,[4],7.6 ± 1.4 µg/mL
same,effect on cell survival,[5],no significant effect
"C#Cc1cccc(Nc2ncnc3cc(OCCOC)c(OCCOC)cc23)c1 [erlotinib, N-(3-ethynylphenyl)-6,7-bis(2-methoxyethoxy)-4-quinazolinamine]",reduction in clonogenicity compared to the control / Decrease in living cells (%),[1]; erlotinib alone 0.1 μM/mL,minus 10%
same,reduction in clonogenicity compared to the control / Decrease in living cells (%),[1]; [7],10%
same,reduction in clonogenicity compared to the control / Decrease in living cells (%),[2]; erlotinib alone 0.1 μM/mL,minus 50%
same,reduction in clonogenicity compared to the control / Decrease in living cells (%),[2]; [7],50%
same,reduction in clonogenicity compared to the control / Decrease in living cells (%),[3]; erlotinib alone 0.1 μM/mL,minus 50%
same,reduction in clonogenicity compared to the control / Decrease in living cells (%),[3]; [7],50%
same,reduction in clonogenicity compared to the control / Decrease in living cells (%),[3]; erlotinib alone 0.5 μM/mL,minus 80%
same,reduction in clonogenicity compared to the control / Decrease in living cells (%),"[3]; erlotinib alone 0.5 μM/mL, listed as Erlotinib",80%
"Vectibix®: recombinant, fully human IgG2 kappa monoclonal antibody that binds specifically to the human EGFR",incidence of NCI-CTC grade 3-5 adverse reactions,[6],87%
same,patients with dermatologic toxicities,[6],89%
same,patients with severe dermatologic toxicities (NCI-CTC grade 3 and higher),[6],12%
"Nc1nc2c(ncn2COCCOP(=O)(O)OP(=O)(O)OP(=O)(O)O)c(=O)[nH]1 [Acyclo-GTP, acyclo-guanosine triphosphate]",times greater affinity for viral than cellular polymerase,viral DNA polymerase,approximately 100 times
"O=C(O)P(=O)(O)O [foscarnet, phosphonoformic acid]",reduction in clonogenicity compared to the control / Decrease in living cells (%),[1]; [8],minus 20%
same,reduction in clonogenicity compared to the control / Decrease in living cells (%),[1]; [9],20%
same,reduction in clonogenicity compared to the control / Decrease in living cells (%),[2]; [8],minus 20%
same,reduction in clonogenicity compared to the control / Decrease in living cells (%),[2]; [9],20%
same,reduction in clonogenicity compared to the control / Decrease in living cells (%),[3]; [8],minus 35%
same,reduction in clonogenicity compared to the control / Decrease in living cells (%),[3]; [9],35%
